Measurements: US20090062294A1, “HETEROARYL-SUBSTITUTED UREA MODULATORS OF FATTY ACID AMIDE HYDROLASE” (priority 2007, published 2009)
Counter-ions that a name gives are not always drawn.

Tests used:
FAAH = target: T1, FAAH (Homo sapiens, UniProt O00519); assay: Assay Method 1: FAAH assay, 3H-anandamide hydrolysis in homogenate of T84 cells or SK-N-MC cells transfected with human FAAH; type: biochemical; conditions: average of results, > = solubility limit or highest concentration tested
T1 sequence (O00519 1-579): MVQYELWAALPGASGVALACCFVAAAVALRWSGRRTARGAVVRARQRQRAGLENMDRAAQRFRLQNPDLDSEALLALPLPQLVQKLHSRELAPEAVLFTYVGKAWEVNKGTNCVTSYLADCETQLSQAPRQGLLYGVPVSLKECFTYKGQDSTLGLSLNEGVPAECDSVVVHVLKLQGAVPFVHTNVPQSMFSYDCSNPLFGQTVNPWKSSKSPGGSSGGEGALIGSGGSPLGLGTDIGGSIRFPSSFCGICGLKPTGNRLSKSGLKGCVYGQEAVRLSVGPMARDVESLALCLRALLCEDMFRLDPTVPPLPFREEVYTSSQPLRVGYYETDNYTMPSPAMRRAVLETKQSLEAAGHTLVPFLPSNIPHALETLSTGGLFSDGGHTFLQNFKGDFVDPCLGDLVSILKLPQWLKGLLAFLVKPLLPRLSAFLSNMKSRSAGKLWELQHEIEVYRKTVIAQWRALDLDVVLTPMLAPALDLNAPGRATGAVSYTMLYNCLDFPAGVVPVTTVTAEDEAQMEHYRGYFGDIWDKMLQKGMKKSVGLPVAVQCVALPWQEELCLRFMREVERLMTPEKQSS
How it was run: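 Hydrolysis of ^3H-anandamide (80 nM final, added last) was measured over 1 h at rt, using test compound with homogenate of T84 cells or human FAAH-transfected SK-N-MC cells. The homogenization buffer was 125 mM Tris, 1 mM EDTA, 0.02% Triton X-100, pH 9. Unbound labelled ethanolamine was passed through charcoal filters and scintillation-counted.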

rat FAAH = target: T2, rat FAAH (Rattus norvegicus, UniProt P97612); assay: Assay Method 2: FAAH assay, 3H-anandamide hydrolysis in homogenate of SK-N-MC cells transfected with rat FAAH; type: biochemical; conditions: average of results, > = solubility limit or highest concentration tested
T2 sequence (P97612 1-579): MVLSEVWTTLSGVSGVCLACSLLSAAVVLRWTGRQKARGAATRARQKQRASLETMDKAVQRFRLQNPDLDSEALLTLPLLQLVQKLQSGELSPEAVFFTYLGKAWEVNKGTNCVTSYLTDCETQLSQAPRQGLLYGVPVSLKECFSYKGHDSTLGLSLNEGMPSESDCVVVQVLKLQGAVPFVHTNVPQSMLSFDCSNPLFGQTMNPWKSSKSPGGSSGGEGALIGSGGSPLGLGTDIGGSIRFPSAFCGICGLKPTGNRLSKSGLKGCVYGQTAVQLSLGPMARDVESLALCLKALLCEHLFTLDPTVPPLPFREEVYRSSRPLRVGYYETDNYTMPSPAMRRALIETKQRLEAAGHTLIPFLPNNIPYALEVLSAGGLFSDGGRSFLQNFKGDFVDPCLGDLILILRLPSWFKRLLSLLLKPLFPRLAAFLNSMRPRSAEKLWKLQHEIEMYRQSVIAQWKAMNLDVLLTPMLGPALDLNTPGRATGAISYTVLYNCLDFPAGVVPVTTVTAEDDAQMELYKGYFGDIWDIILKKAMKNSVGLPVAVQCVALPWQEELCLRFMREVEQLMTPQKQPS
How it was run: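 Read-out is scintillation counting of [3H]-ethanolamine passing through activated charcoal, after 1 h at rt with 80 nM final [3H]-AEA. Enzyme source: lysate of G418-selected SK-N-MC clones expressing rat FAAH, homogenized in Tris/EDTA/glycerol/0.02% Triton buffer, pH 9.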

| Compound | IC50 (FAAH) [nM] | IC50 (rat FAAH) [nM] |
| --- | --- | --- |
| O=C(Nc1ccon1)N1CCN(Cc2cccc(Oc3ccc(Cl)c(Cl)c3)c2)CC1 [Example 47, 4-[3-(3,4-Dichloro-phenoxy)-benzyl]-piperazine-1-carboxylic acid isoxazol-3-ylamide trifluoroacetic acid salt] | 1140 | 66 |
| O=C(Nc1ccon1)N1CCN(Cc2cccc(Oc3cccc(C(F)(F)F)c3)c2)CC1 [Example 48, 4-[3-(3-Trifluoromethyl-phenoxy)-benzyl]-piperazine-1-carboxylic acid isoxazol-3-ylamide trifluoroacetic acid salt] | 627 | 49 |
| O=C(Nc1ccon1)N1CCN(Cc2ccc(F)c(Oc3ccccc3)c2)CC1 [Example 49, 4-(4-Fluoro-3-phenoxy-benzyl)-piperazine-1-carboxylic acid isoxazol-3-ylamide trifluoroacetic acid salt] | 2000 | 360 |
| O=C(Nc1noc2ccccc12)N1CCN(Cc2cccc(Oc3ccc(Cl)c(Cl)c3)c2)CC1 [Example 50, 4-[3-(3,4-Dichloro-phenoxy)-benzyl]-piperazine-1-carboxylic acid benzo[d]isoxazol-3-ylamide trifluoroacetic acid salt] | 42 | 18 |
| O=C(Nc1noc2ccccc12)N1CCN(Cc2cccc(Oc3cccc(C(F)(F)F)c3)c2)CC1 [Example 51, 4-[3-(3-Trifluoromethyl-phenoxy)-benzyl]-piperazine-1-carboxylic acid benzo[d]isoxazol-3-ylamide trifluoroacetic acid salt] | 28 | 29 |
| O=C(Nc1noc2ccccc12)N1CCN(Cc2cccc(OC(F)(F)F)c2)CC1 [Example 52, 4-(3-Trifluoromethoxy-benzyl)-piperazine-1-carboxylic acid benzo[d]isoxazol-3-ylamide trifluoroacetic acid salt] | 74 | 322 |
| O=C(Nc1cc[nH]n1)N1CCN(Cc2cccc(Oc3ccc(Cl)c(Cl)c3)c2)CC1 [Example 54, 4-[3-(3,4-Dichloro-phenoxy)-benzyl]-piperazine-1-carboxylic acid (1H-pyrazol-3-yl)-amide trifluoroacetic acid salt] | 370 | 50 |
| O=C(Nc1cc[nH]n1)N1CCN(Cc2cccc(Oc3cccc(C(F)(F)F)c3)c2)CC1 [Example 55, 4-[3-(3-Trifluoromethyl-phenoxy)-benzyl]-piperazine-1-carboxylic acid (1H-pyrazol-3-yl)-amide trifluoroacetic acid salt] | 7750 | 764 |
| O=C(Nc1cc[nH]n1)N1CCN(Cc2ccc(F)c(Oc3ccccc3)c2)CC1 [Example 56, 4-(4-Fluoro-3-phenoxy-benzyl)-piperazine-1-carboxylic acid (1H-pyrazol-3-yl)-amide trifluoroacetic acid salt] | 1500 | 550 |
| O=C(Nc1cnccn1)N1CCN(Cc2cccc(Oc3ccc(Cl)c(Cl)c3)c2)CC1 [Example 59, 4-[3-(3,4-Dichloro-phenoxy)-benzyl]-piperazine-1-carboxylic acid pyrazin-2-ylamide trifluoroacetic acid salt] | 270 | 22 |
| O=C(Nc1cnccn1)N1CCN(Cc2cccc(Oc3cccc(C(F)(F)F)c3)c2)CC1 [Example 60, 4-[3-(3-Trifluoromethyl-phenoxy)-benzyl]-piperazine-1-carboxylic acid pyrazin-2-ylamide trifluoroacetic acid salt] | 166 | 16 |
| O=C(Nc1cnccn1)N1CCN(Cc2cccc(OC(F)(F)F)c2)CC1 [Example 61, 4-(3-Trifluoromethoxy-benzyl)-piperazine-1-carboxylic acid pyrazin-2-ylamide trifluoroacetic acid salt] | 2300 | 7000 |
| O=C(Nc1noc2ccccc12)N1CCC(Cc2ccc3c(c2)OC(F)(F)O3)CC1 [Example 62, N-1,2-Benzisoxazol-3-yl-4-[(2,2-difluoro-1,3-benzodioxol-5-yl)methyl]piperidine-1-carboxamide] | 41 | 35 |
| Cc1ccccc1C#Cc1cccc(CN2CCN(C(=O)Nc3noc4ccccc34)CC2)c1 [Example 63, 4-(3-o-Tolylethynyl-benzyl)-piperazine-1-carboxylic acid benzo[d]isoxazol-3-ylamide] | 70 | 77 |
| O=C(Nc1noc2ccccc12)N1CCN(Cc2cccc(C#Cc3ccccc3C(F)(F)F)c2)CC1 [Example 64, N-1,2-Benzisoxazol-3-yl-4-(3-{[2-(trifluoromethyl)-phenyl]-ethynyl}benzyl)-piperazine-1-carboxamide] | 105 | 80 |
| COc1ccccc1C#Cc1cccc(CN2CCN(C(=O)Nc3noc4ccccc34)CC2)c1 [Example 65, N-1,2-Benzisoxazol-3-yl-4-{3-[(2-methoxyphenyl)-ethynyl]-benzyl}-piperazine-1-carboxamide] | 395 | 300 |
| O=C(Nc1noc2ccccc12)N1CCN(Cc2cccc(C#Cc3ccccc3F)c2)CC1 [Example 66, N-1,2-Benzisoxazol-3-yl-4-{3-[(2-fluorophenyl)ethynyl]-benzyl}-piperazine-1-carboxamide] | 24 | 46 |
| O=C(Nc1noc2ccccc12)N1CCN(Cc2cccc(C#Cc3ccccc3Br)c2)CC1 [Example 67, N-1,2-Benzisoxazol-3-yl-4-{3-[(2-bromophenyl)-ethynyl]benzyl}-piperazine-1-carboxamide] | 6 | 52 |
| C#Cc1cccc(CN2CCN(C(=O)Nc3noc4ccccc34)CC2)c1 [Example 68, 4-(3-Ethynyl-benzyl)-piperazine-1-carboxylic acid benzo[d]isoxazol-3-ylamide] | 16 | 315 |
| CN(C)CC#Cc1cccc(CN2CCN(C(=O)Nc3noc4ccccc34)CC2)c1 [Example 69, N-1,2-Benzisoxazol-3-yl-4-{3-[3-(dimethylamino)prop-1-yn-1-yl]benzyl}-piperazine-1-carboxamide] | 44 | 2000 |
| O=C(Nc1noc2ccccc12)N1CCN(Cc2cccc(C#CC3CCCCC3)c2)CC1 [Example 70, N-1,2-Benzisoxazol-3-yl-4-[3-(cyclohexylethynyl)benzyl]-piperazine-1-carboxamide] | 46 | 46 |
| O=C(Nc1noc2ccccc12)N1CCN(Cc2cccc(C#CC3CCCC3)c2)CC1 [Example 71, N-1,2-Benzisoxazol-3-yl-4-[3-(cyclopentylethynyl)benzyl]-piperazine-1-carboxamide] | 13 | 50 |
| O=C(Nc1noc2ccccc12)N1CCN(Cc2cccc(C#Cc3ccccc3Cl)c2)CC1 [Example 72, N-1,2-Benzisoxazol-3-yl-4-{3-[(2-chlorophenyl)-ethynyl]benzyl}-piperazine-1-carboxamide] | 24 | 30 |
| O=C(Nc1noc2ccccc12)N1CCN(Cc2cccc(C#Cc3cccc(Cl)c3)c2)CC1 [Example 73, N-1,2-Benzisoxazol-3-yl-4-{3-[(3-chlorophenyl)ethynyl]benzyl}-piperazine-1-carboxamide] | 24 | 33 |
